Test systems include NCI-H522 lung; BT-549 breast; HCT-116 colon; MDA-N; SN12C renal; A549 NSCLC; HCT-15 colon; SK-OV-3 ovarian; CCRF-CEM leukemia; HOP-92 NSCLC; UO-31 renal; SNB-19 CNS; NCI-H460 lung; UACC-62 melanoma.
Assay in all cases: growth of human tumour cells (NCI), 48 h

Each structure is given as a SMILES string.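 Assay format: 96-well plates, 48-hour exposure. At the TGI there is no net growth.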 Where only a bound is given, the exact number is not on record here.

With `COC(=O)CCC(C)[C@H]1CCC2C3C(C[C@H](OC(C)=O)[C@@]21C)[C@@]1(C)CCC2(C[C@H]1C[C@H]3OC(C)=O)OOC1(CCCCC1)OO2` (stereo partly specified), the TGI with NCI-H522 lung was 60.5 µM; with BT-549 breast, more than 100 µM; in the test with HCT-116 colon, more than 100 µM; in the test on MDA-N it was more than 100 µM; in the test with SN12C renal it was more than 100 µM; with A549 NSCLC, 70.7 µM. Moreover, the TGI in the test with HCT-15 colon is more than 100 µM; with SK-OV-3 ovarian it was more than 100 µM; in the test with CCRF-CEM leukemia it was more than 100 µM; in the test with HOP-92 NSCLC, 26.5 µM; in the test with UO-31 renal it was 25.7 µM; with SNB-19 CNS it was more than 100 µM. This molecule also registered a TGI with NCI-H460 lung of more than 100 µM.
Take `CCCc1cc(-c2ccc(-c3cc(CCC)c(C=O)[nH]3)s2)[nH]c1C=O`: the TGI in the test on UACC-62 melanoma is more than 100 µM; with NCI-H522 lung, 17.9 µM; in the test with BT-549 breast it was more than 100 µM; in the test with HCT-116 colon it was more than 100 µM; in the test on MDA-N, more than 100 µM; with SN12C renal, more than 100 µM. The TGI was 22.7 µM in the test on A549 NSCLC; more than 100 µM in the test on HCT-15 colon; more than 100 µM in the test with SK-OV-3 ovarian; more than 100 µM with CCRF-CEM leukemia; more than 100 µM with HOP-92 NSCLC; more than 100 µM with UO-31 renal. The TGI in the test with SNB-19 CNS and in the test on NCI-H460 lung was more than 100 µM in each case.
Take `CC1=C(C)C(=O)C(C2=C(C3=CC(=O)C(C)=C(C)C3=O)C(=O)c3ccccc3C2=O)=CC1=O`: the TGI in the test with UACC-62 melanoma came to 4.62 µM; with NCI-H522 lung, 5.49 µM; with BT-549 breast it was 7.16 µM; in the test with HCT-116 colon, 5.31 µM; in the test on MDA-N it was 3.6 µM; with SN12C renal it was 4.06 µM. In addition, the TGI amounted to 17.7 µM with A549 NSCLC; 5.53 µM in the test on HCT-15 colon; 30.5 µM in the test on SK-OV-3 ovarian; 7.22 µM with CCRF-CEM leukemia; 6.72 µM in the test on HOP-92 NSCLC; 4.95 µM in the test on UO-31 renal. Besides, the TGI in the test on SNB-19 CNS was 25.8 µM; in the test with NCI-H460 lung, 37.7 µM.
Consider `CCCCCCC(=O)OC[n+]1cccc(-c2c(COC(=O)NC(C)C)c(COC(=O)NC(C)C)c3n2CCC3)c1`, for which the TGI in the test on UACC-62 melanoma is 72.9 µM; in the test with NCI-H522 lung, 43.6 µM; in the test with BT-549 breast, more than 96.4 µM; in the test with HCT-116 colon it was more than 87.2 µM; in the test on MDA-N it was more than 100 µM; in the test with SN12C renal it was more than 100 µM. Also, the TGI in the test with A549 NSCLC is more than 100 µM; in the test with HCT-15 colon, more than 100 µM; in the test with SK-OV-3 ovarian, more than 100 µM; with CCRF-CEM leukemia it was more than 66.5 µM; in the test on HOP-92 NSCLC it was 66.4 µM; in the test with UO-31 renal, 63.7 µM. Moreover, the TGI with SNB-19 CNS and in the test on NCI-H460 lung was more than 100 µM in each case.
As to `COc1ccc(N2C(=O)C3c4[nH]c5ccc(OCc6ccccc6)cc5c4C4CCC(C(C)C)CC4C3C2=O)cc1` (stereo unspecified), the TGI was more than 51.7 µM in the test on UACC-62 melanoma; 73.4 µM in the test with NCI-H522 lung; more than 60.4 µM in the test with BT-549 breast; more than 100 µM in the test with HCT-116 colon; more than 100 µM with MDA-N; more than 100 µM with SN12C renal. The TGI with A549 NSCLC was more than 100 µM; with HCT-15 colon it was more than 100 µM; with SK-OV-3 ovarian, 43 µM; in the test with CCRF-CEM leukemia it was 31.3 µM; in the test on HOP-92 NSCLC it was 93.2 µM; with UO-31 renal, more than 100 µM. Moreover, the results for the TGI with SNB-19 CNS and in the test with NCI-H460 lung were 34.9 µM and more than 45.8 µM, respectively.
Regarding `CC1(C)CC2(C)ON=C(c3ccccc3)N2c2ccccc2N1` (stereo unspecified), the TGI in the test with UACC-62 melanoma amounted to 27.9 µM; in the test with NCI-H522 lung it was 47.3 µM; in the test with BT-549 breast, 36.9 µM; in the test with HCT-116 colon, 28 µM; with MDA-N, 47.9 µM; with SN12C renal, 84 µM. Moreover, the TGI in the test on A549 NSCLC is more than 100 µM; in the test with HCT-15 colon it was more than 100 µM; with SK-OV-3 ovarian it was 53 µM; with CCRF-CEM leukemia, more than 100 µM; with HOP-92 NSCLC, 61.4 µM; in the test with UO-31 renal, 43.6 µM. Moreover, the TGI with SNB-19 CNS stood at 68.1 µM; with NCI-H460 lung, 46.9 µM.
With `O=c1oc2c(ccc3c(O)cccc32)c2c1CCCC2`, the TGI was 27.2 µM in the test on UACC-62 melanoma; more than 100 µM in the test with NCI-H522 lung; 73.6 µM with BT-549 breast; more than 100 µM in the test on HCT-116 colon; more than 100 µM in the test with MDA-N; more than 100 µM in the test on SN12C renal. Further, the TGI was more than 100 µM with A549 NSCLC; more than 100 µM in the test on CCRF-CEM leukemia; 50.1 µM in the test on HOP-92 NSCLC; more than 100 µM in the test on UO-31 renal; more than 100 µM with SNB-19 CNS; more than 100 µM in the test on NCI-H460 lung.
In the case of `Cc1ncc(CO)c(C=NCCCCCCN=Cc2c(CO)cnc(C)c2O)c1O`, the TGI with UACC-62 melanoma, in the test on NCI-H522 lung, in the test with BT-549 breast, with HCT-116 colon, in the test with MDA-N and in the test with SN12C renal was more than 100 µM each time. The TGI in the test with A549 NSCLC, with HCT-15 colon, in the test with SK-OV-3 ovarian, with CCRF-CEM leukemia, in the test on HOP-92 NSCLC and in the test with UO-31 renal was more than 100 µM in each case. In addition, the TGI in the test with SNB-19 CNS and with NCI-H460 lung was more than 100 µM each time.
In the case of `COC(=O)CCC1(O)C=CC(=O)C=C1`, the TGI was 58 µM in the test on UACC-62 melanoma; 28.8 µM with NCI-H522 lung; more than 100 µM in the test on BT-549 breast; more than 100 µM in the test with HCT-116 colon; more than 100 µM with MDA-N; more than 100 µM in the test on SN12C renal. For the same molecule, the TGI with A549 NSCLC is more than 100 µM; with HCT-15 colon, 43.2 µM; with CCRF-CEM leukemia, more than 100 µM; with HOP-92 NSCLC it was more than 100 µM; in the test on UO-31 renal it was more than 100 µM; with SNB-19 CNS, more than 100 µM. For the same molecule, in the test on NCI-H460 lung, the TGI was more than 100 µM.
On to `COc1cccc(C(=O)N[C@@H]2[C@H](O)[C@@H](CO)O[C@H]2n2cnc3c(N)ncnc32)c1`, for which the TGI in the test on UACC-62 melanoma, in the test on NCI-H522 lung, in the test with BT-549 breast, in the test with HCT-116 colon, with MDA-N and in the test on SN12C renal was more than 100 µM throughout. Also, the TGI with A549 NSCLC, in the test with HCT-15 colon, in the test with SK-OV-3 ovarian, in the test on CCRF-CEM leukemia, with HOP-92 NSCLC and with UO-31 renal was more than 100 µM each time. In addition, the TGI in the test with SNB-19 CNS and with NCI-H460 lung was more than 100 µM each time.

The values are drawn from PubChem BioAssay (NCI).
